Tested on: synaptosomes
Experiment: NAD+ uptake by isolated synaptosomes (synaptosomal NAD(H) levels)
Design: species or system mouse

Compound	uptake of NAD+ by synaptosomes (purinergic receptor P2X(7)-gated channels inhibitor)	increase of synaptosomal NAD(H) levels compared to control samples (synaptosomes incubated with 10 mM NAD+)
brilliant blue	blocked	
NC(=O)c1ccc[n+]([C@@H]2O[C@H](COP(=O)([O-])OP(=O)(O)OC[C@H]3O[C@@H](n4cnc5c(N)ncnc54)[C@H](O)[C@@H]3O)[C@@H](O)[C@H]2O)c1 [NAD^+, nicotinamide adenine dinucleotide]		2 fold

From patent US20120328526A1, “Modulation of Nad+ Activity in Neuropathophysiological Conditions and Uses Thereof” (University of Maryland, Baltimore, priority 2011, published 2012)
